# Data as given in PubChem BioAssay (NCI).
#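 Each compound was tested at five concentrations against cells in 96-well plates for 48 hours. GI50 marks 50% less growth. TGI marks complete inhibition of growth.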
# Tests used:
# Test in all cases: NCI-60 cell line screen, 48 h
# MDA-MB-231 breast = tested on: MDA-MB-231 breast
# A498 renal = tested on: A498 renal
# HCT-116 colon = tested on: HCT-116 colon
# HOP-92 NSCLC = tested on: HOP-92 NSCLC
# MCF7 breast = tested on: MCF7 breast
# K-562 leukemia = tested on: K-562 leukemia
# SK-MEL-2 melanoma = tested on: SK-MEL-2 melanoma
# NCI-H460 lung = tested on: NCI-H460 lung
# SF-295 CNS = tested on: SF-295 CNS
# OVCAR-4 ovarian = tested on: OVCAR-4 ovarian
Compound,GI50 (MDA-MB-231 breast) [µM],GI50 (A498 renal) [µM],TGI (A498 renal) [µM],GI50 (HCT-116 colon) [µM],TGI (HCT-116 colon) [µM],GI50 (HOP-92 NSCLC) [µM],TGI (HOP-92 NSCLC) [µM],GI50 (MCF7 breast) [µM],TGI (MCF7 breast) [µM],GI50 (K-562 leukemia) [µM],TGI (K-562 leukemia) [µM],GI50 (SK-MEL-2 melanoma) [µM],TGI (SK-MEL-2 melanoma) [µM],GI50 (NCI-H460 lung) [µM],TGI (NCI-H460 lung) [µM],GI50 (SF-295 CNS) [µM],TGI (SF-295 CNS) [µM],GI50 (OVCAR-4 ovarian) [µM],TGI (OVCAR-4 ovarian) [µM],TGI (MDA-MB-231 breast) [µM]
Nc1n[nH]c2ccc([C@@H]3Nc4cc5c(cc4[C@H]4C6CCC(C6)[C@@H]34)C(=O)NC5)cc12 (some centres undefined),0.436,0.13,0.737,0.343,> 100,0.375,> 100,0.18,> 100,0.131,> 100,15,> 100,0.424,> 100,0.323,> 42,1.37,> 100,
COc1cc2c(cc1F)C(c1ccccc1Cl)=Nc1c(n[nH]c1C)N2,2.12,2.06,9.97,0.639,18.4,1.34,13.5,1.03,20.7,0.493,> 50.4,1.08,17.3,0.498,26.5,0.477,15.7,5.63,28.6,16.9
COc1ccc(/C=C(\C)[N+](=O)[O-])cc1OC,2.33,4.51,18.5,1.81,3.46,2.01,3.71,1.35,3.25,2.17,> 100,1.98,3.83,2.54,6.56,17.8,32.3,1.97,4.91,6.21
C=CCc1cc(Nc2c3ccc(Cl)cc3nc3ccc(OC)cc23)cc(CN(CC)CC)c1O,2.35,1.68,5.84,0.365,1.97,1.11,4.04,2.1,7.94,0.615,4.11,1.9,4.93,0.525,2.69,0.938,5.17,1.68,12.2,10.8
CCc1c(C)nc2sc3c(N)ncnc3c2c1C,> 25,> 25,> 25,> 25,> 25,> 25,> 25,> 25,> 25,> 25,> 25,> 25,> 25,> 25,> 25,> 25,> 25,> 25,> 25,> 25
COC(=O)c1cc(-c2ccc(OC)c(OC)c2)[nH]c1N/N=C/c1c(Cl)cccc1Cl,1.31,0.532,3.8,0.396,2.11,0.944,5.06,0.301,1.44,0.46,> 100,0.832,7.14,0.379,1.85,0.257,2.07,1.67,12.1,5.03
Fc1cccc(F)c1C(Nc1nncs1)Nc1nncs1,,,> 100,,> 100,,> 100,,> 100,,> 100,,> 100,,> 100,,> 100,,> 100,> 100
Cc1[nH]nc(-c2ccon2)c1N=O,,,> 100,,56.8,,29,,63.2,,44.8,,> 100,,> 100,,34.6,,37.6,32.4
FC(F)(F)c1cccc(-c2nn3ncccc3c2-c2ccnc(Nc3ccc4c(c3)OCCO4)n2)c1,9.02,9.59,> 25,9.75,> 25,5.52,> 25,14.4,> 25,8.75,> 25,> 25,> 25,11.1,> 25,18.2,> 25,10.3,> 25,> 25
